In data set [1] the test system is cIAP1, procaspase-8 and PARP in MDA-MB-231 xenograft tissues. Description: In vivo pharmacodynamics in MDA-MB-231 xenograft tissues. Also noted: species or system SCID mice.
Data set [2] has as its system MDA-MB-231 xenograft tumors. The data set can be described thus: In vivo antitumor efficacy, MDA-MB-231 xenograft model.
Data set [3] in a line: Pharmacokinetics in non-human primates. To be noted: cynomolgus monkey, plasma, po, 5 mg/kg. It counts as in vivo, cynomolgus monkeys.
Data set [4] has as its system normal-like human breast epithelial MCF-12F cells. The data set can be described thus: Trypan blue cell death assay, MCF-12F. It counts as cell-based. Particulars: concentrations as high as 10 μM, 48 hours.
In data set [5] the test system is more than 100 human cancer cell lines. The data set can be described thus: Screening against more than 100 human cancer cell lines. The format is cell-based.
In data set [6] the test system is MDA-MB-231 cancer cells. Description: Trypan blue cell death assay, MDA-MB-231. The format is cell-based, human. To be noted: 1 μM for 24 hours.
Data set [7] concerns caspase-3 and PARP in MDA-MB-231 cancer cells. The data set can be described thus: Western blot of caspase-3 activation and PARP cleavage, MDA-MB-231. The format is cell-based, human. Particulars: 1.5 μM, in as little as 12 hr. Background: In western blotting, separated proteins are transferred to a membrane and probed.
In data set [8] the target is cIAP1 (Homo sapiens, UniProt Q13490). Description: cIAP1 degradation in MDA-MB-231 cells. The format is cell-based.
cIAP1, sequence (Q13490 whole entry): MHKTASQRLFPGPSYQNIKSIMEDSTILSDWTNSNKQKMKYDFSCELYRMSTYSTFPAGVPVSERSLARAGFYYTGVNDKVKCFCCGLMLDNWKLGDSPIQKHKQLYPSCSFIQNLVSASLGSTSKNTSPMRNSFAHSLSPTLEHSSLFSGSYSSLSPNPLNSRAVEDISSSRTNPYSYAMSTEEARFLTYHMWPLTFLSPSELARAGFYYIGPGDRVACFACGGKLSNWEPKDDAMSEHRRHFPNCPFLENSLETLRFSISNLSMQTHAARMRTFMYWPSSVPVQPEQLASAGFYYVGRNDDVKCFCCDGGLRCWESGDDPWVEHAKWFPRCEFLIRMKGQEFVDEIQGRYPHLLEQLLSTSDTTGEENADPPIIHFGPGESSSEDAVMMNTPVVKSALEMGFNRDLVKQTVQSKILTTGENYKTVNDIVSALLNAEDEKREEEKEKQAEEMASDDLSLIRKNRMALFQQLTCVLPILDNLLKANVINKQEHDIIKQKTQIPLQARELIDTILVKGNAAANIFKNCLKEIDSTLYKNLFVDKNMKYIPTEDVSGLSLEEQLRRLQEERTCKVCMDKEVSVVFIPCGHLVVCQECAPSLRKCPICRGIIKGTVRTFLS
Data set [9] addresses T1, XIAP BIR3 protein (Homo sapiens, UniProt P98170). The data set can be described thus: Competitive fluorescence-polarization binding assay, XIAP BIR3. To be noted: XIAP BIR3, cIAP1 BIR3 and cIAP2 BIR3.
Data set [10] in a line: Pharmacokinetics in dogs. It counts as in vivo. Particulars: beagle, dog, po, 10 mg/kg.
A short description of data set [11]: Pharmacokinetics in plasma of SCID mice bearing MDA-MB-231 tumors. Particulars: mouse, in vivo.
Data set [12] can be described thus: Toxicity evaluation in mice. It counts as in vivo. Particulars: 200 mg/kg, daily for 5 days a week for 2–3 weeks via oral gavage.
A short description of data set [13]: Pharmacokinetics in MDA-MB-231 tumor tissues of SCID mice. The format is in vivo. Particulars: for Cmax: SCID, mouse, in vivo.
The subject of data set [14] is Primary human normal prostate epithelial cells. Description: Trypan blue cell death assay, primary prostate epithelial cells. The format is cell-based. To be noted: concentrations as high as 10 μM, 48 hours.
Data set [15] can be described thus: Tolerability in dogs. It counts as in vivo. Particulars: IND-enabling studies, data not shown.
The nature of data set [16]: Metabolic stability. It counts as in vitro ADME. Particulars: IND-enabling studies, data not shown.
In data set [17] the target is T1, XIAP BIR3 protein. Description: Cell-free functional assay against XIAP BIR3. It counts as biochemical. To be noted: 1 μM compound, 500 nM XIAP BIR3, MDA-MB-231 cell lysates.
[18] abbreviates: 7.5 mg/kg intravenously, 24-h time-point.

Entries after “also recorded” stand apart in the source; their conditions may differ.

Usually Cmax stands for the maximum level reached in the sampled fluid or tissue. For orientation: AUC means concentration integrated over time.

T1 sequence (P98170 241-356): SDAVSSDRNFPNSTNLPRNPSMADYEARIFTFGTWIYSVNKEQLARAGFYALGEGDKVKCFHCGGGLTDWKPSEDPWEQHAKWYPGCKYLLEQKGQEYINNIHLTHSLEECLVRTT

In the case of `CC(=O)O[C@@]12CO[C@@H]1C[C@H](O)[C@@]1(C)C(=O)[C@H](O)C3=C(C)[C@@H](OC(=O)[C@H](O)[C@@H](NC(=O)OC(C)(C)C)c4ccccc4)C[C@@](O)([C@@H](OC(=O)c4ccccc4)[C@H]21)C3(C)C.O.O.O` [TXT, reference compound], in data set [1] (setting [18]), the “PARP cleavage in tumor tissues” value was “minimal effect”, the “cIAP1 degradation in tumor tissues” value is recorded as “minimal effect” and the “processing of procaspase-8 in tumor tissues” value was “induces the processing of procaspase-8”. For the same molecule, the antitumor activity entry in data set [2] (7.5 mg/kg intravenously, once a week for 2 weeks) is “strong antitumor activity”.

Turning to `CN[C@@H](C)C(=O)N[C@H]1CN(C(=O)CC(C)C)CC[C@H]2CC[C@@H](C(=O)NC(c3ccccc3)c3ccccc3)N2C1=O` [compound 2, (5S,8S,10aR)-N-benzhydryl-5-((S)-2-(methylamino)propanamido)-3-(3-methylbutanoyl)-6-oxodeca-hydropyrrolo[1,2-a][1,5]diazocine-8-carboxamide], the Cmax in data set [3] is about 4 µM; in [10] (plasma), 17 µM; in data set [11] (iv, 10 mg/kg), 5 µM; in data set [11] (po, 10 mg/kg), 1.5 µM; in [11] (po, 30 mg/kg), 2 µM; in data set [11] (po, 100 mg/kg), 9.9 µM. Further, the Cmax in data set [13] (iv, 10 mg/kg) was 6 µM; in data set [13] (po, 10 mg/kg) it was 0.5 µM; in data set [13] (po, 30 mg/kg), 3.9 µM; in data set [13] (po, 100 mg/kg) it was 18.2 µM. For the same molecule, in data set [4], the “toxicity (cell death) against normal-like cells” value is recorded as “minimal toxicity”. Besides, the “share of cell lines in which cell growth is effectively inhibited” value in [5] is given as “approximately 15%”. Further, in [6], the “cells that underwent cell death” value was “More than 50%”. For the same molecule, the “activation of caspase-3 and cleavage of PARP” value in data set [7] was “robust activation of caspase-3 and cleavage of PARP”. The cIAP1 degradation result in data set [8] (100 nM for 15 min) is on record as “complete degradation”. Besides, the “induction of cIAP1 degradation” value in data set [8] (at concentrations as low as 10 nM) is listed as “effectively induces cIAP1 degradation”. The “times higher affinities than the Smac AVPI peptide” value in [9] is 50–100 times. The AUC in data set [10] (in vivo) came out at 198 µg·h/mL. The tolerability result in data set [12] was “well tolerated”. Besides, the “processing of procaspase-8 in tumor tissues” value in data set [1] (single oral dose 100 mg/kg, 2-hr and 6-hr time-points) is on record as “effectively induces processing of procaspase-8”. For the same molecule, the “PARP cleavage in tumor tissues” value in data set [1] (single oral dose 100 mg/kg, at 2 hr, maximum at 6 hr, still evident after 16 hr) is “cleavage of the apoptosis marker, PARP”. Moreover, the “cIAP1 degradation in tumor tissues” value in data set [1] (single oral dose 100 mg/kg, at the 2-hr time-point, persists for 16 hr) is “effectively induced cIAP1 degradation”. The tumor tissue penetration result in data set [13] (SCID mice bearing MDA-MB-231 tumors) is recorded as “excellent tumor tissue penetration”. Moreover, the “toxicity (cell death) against normal cells” value in data set [14] is “minimal toxicity”. In addition, the tolerability in dogs result in data set [15] is recorded as “well tolerated”. Also, the antitumor activity entry in [2] (10 mg/kg oral gavage daily, 5 days a week for 2 weeks) is recorded as “no significant antitumor activity”. In addition, in data set [2] (oral dosing, MDA-MB-231 xenograft model in mice), the toxicity to animals result is “minimal toxicity; also recorded: no signs of toxicity”. Also, the metabolic stability result in data set [16] is “good metabolic stability”. For the same molecule, in data set [17], the “antagonism of XIAP BIR3 and restoration of caspase-9 activity” value is “completely antagonizes XIAP and restores the activity of caspase-9”.

(Values after PMC3520070 (Journal of medicinal chemistry, 2011).)
